From BindingDB's records for patent US20250289799 (Jiangsu Yahong Meditech Co., 2025)

Target: Ubiquitin carboxyl-terminal hydrolase 1/WD repeat-containing protein 48 (Homo sapiens, UniProt O94782+Q8TAF3)
Test: In Vitro USP1  Inhibitory Activity
Protocol: Experimental Methods1) Preparation of 1× assay buffer: 1× assay buffer (modified Tris buffer) was prepared;2) Compound dilution: The compound was transferred to the assay plate by Echo.

Chain of Ubiquitin carboxyl-terminal hydrolase 1/WD repeat-containing protein 48 (O94782 whole entry): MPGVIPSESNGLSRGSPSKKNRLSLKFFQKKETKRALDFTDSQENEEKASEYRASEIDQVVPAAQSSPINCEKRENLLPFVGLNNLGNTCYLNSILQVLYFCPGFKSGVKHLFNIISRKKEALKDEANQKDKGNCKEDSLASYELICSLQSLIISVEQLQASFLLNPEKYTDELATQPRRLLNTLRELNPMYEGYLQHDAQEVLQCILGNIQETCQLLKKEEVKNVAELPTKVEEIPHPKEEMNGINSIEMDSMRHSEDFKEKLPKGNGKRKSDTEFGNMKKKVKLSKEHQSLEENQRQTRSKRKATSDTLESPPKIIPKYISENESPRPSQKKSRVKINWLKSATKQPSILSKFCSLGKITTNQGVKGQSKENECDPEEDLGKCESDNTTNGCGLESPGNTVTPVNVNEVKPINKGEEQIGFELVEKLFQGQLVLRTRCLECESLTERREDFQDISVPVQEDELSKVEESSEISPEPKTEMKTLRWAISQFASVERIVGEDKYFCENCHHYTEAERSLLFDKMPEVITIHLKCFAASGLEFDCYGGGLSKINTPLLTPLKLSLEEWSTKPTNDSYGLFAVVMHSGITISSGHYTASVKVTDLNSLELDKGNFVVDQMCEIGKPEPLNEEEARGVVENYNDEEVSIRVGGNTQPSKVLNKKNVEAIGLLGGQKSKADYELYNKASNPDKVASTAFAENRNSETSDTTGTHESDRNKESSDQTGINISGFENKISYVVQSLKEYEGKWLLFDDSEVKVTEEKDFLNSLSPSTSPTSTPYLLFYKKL
Chain of Ubiquitin carboxyl-terminal hydrolase 1/WD repeat-containing protein 48 (Q8TAF3 whole entry): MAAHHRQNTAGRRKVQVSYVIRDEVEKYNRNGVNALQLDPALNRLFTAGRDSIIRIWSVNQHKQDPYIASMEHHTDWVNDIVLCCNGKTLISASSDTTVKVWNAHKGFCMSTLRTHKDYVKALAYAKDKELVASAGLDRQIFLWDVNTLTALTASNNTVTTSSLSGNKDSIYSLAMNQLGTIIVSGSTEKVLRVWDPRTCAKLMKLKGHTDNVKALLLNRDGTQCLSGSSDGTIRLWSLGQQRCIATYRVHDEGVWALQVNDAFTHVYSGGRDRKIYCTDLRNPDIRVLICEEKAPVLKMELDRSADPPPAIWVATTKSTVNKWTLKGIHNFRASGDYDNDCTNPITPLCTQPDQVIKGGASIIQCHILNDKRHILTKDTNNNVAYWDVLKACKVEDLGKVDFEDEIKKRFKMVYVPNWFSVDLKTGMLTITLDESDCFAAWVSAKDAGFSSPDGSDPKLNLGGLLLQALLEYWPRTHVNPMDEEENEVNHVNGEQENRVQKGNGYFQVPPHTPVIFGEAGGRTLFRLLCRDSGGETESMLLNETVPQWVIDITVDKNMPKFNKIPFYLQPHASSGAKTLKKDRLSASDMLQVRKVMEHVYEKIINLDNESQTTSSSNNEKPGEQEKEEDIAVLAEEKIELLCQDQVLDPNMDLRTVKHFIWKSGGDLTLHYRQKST

IC50 [nM]	SMILES
69.2	Cc1ncn(C(C)C)c1-c1nc(NCc2ccc(-c3nc(C(F)(F)F)cn3C)cc2)c2occc2n1 [US20250289799, Example 149]
9.6	COc1ncnc(C2CC2)c1-c1nc(NCc2ccc(-c3nc(C(F)(F)F)cn3C)cc2)c2occc2n1 [US20250289799, Example 35]
26	COC1CC(Oc2ccc(CNc3nc(-c4ccccc4C(C)C)nc4ccoc34)cc2)C1 (centres undefined) [US20250289799, Example 80]
19.4	COc1ncnc(C2CC2)c1-c1nc(NCc2ccc(OCc3ccccn3)cc2)c2occc2n1 [US20250289799, Example 116]
6.1	COc1cnc(-c2c(Cl)cnn2C(C)C)nc1N(C)CC12CCC(c3nc(C(F)(F)F)cn3C)(CC1)OC2 [US20250289799, Example 211]
25	COc1cnc(-c2c(OC)ncnc2C2CC2)nc1N(O)Cc1ccc(-c2nc(C(F)(F)F)cn2C)cc1 [US20250289799, Example 204]
8.3	COc1cc(-n2nc(C(F)(F)F)cc2C)ccc1CNc1nc(-c2c(OC)ncnc2C2CC2)nc2ccoc12 [US20250289799, Example 121]
1.1	COc1cnc(-c2c(Cl)cnn2C(C)C)nc1NCc1ccc(-c2nc(C(F)(F)F)cn2C)cc1 [US20250289799, Example 164]
1.4	C#Cc1cnc(-c2c(C)cnn2C(C)C)nc1NCc1ccc(-c2nc(C(F)(F)F)cn2C)cc1 [US20250289799, Example 203]
6.4	CC(C)c1ccccc1-c1nc(NCc2ccc3c(c2)CCN(C(C)C)C3=O)c2occc2n1 [US20250289799, Example 78]
3.3	COc1cnc(-c2ccccc2C(C)C)nc1NCC1CCC(c2ccccn2)CC1 (centres undefined) [US20250289799, Example 63]
4.6	COc1cnc(-c2c(OC)ncnc2C2CC2)nc1NCc1ccc(-n2nc(C(F)(F)F)cc2C)cc1 [US20250289799, Example 26]
3.3	COc1cnc(-c2c(OC)ncnc2C2CC2)nc1N(C)CC1CCN(c2nc(C(F)(F)F)cn2C)CC1 [US20250289799, Example 92]
87	COc1cnc(-c2cncnc2C2CC2)nc1N(C)Cc1ccc(-c2nc(C(F)(F)F)cn2C)cc1 [US20250289799, Example 193]
12	c1ccc(-c2ccc(CNc3nc(-c4cccnc4C4CC4)nc4ccoc34)cc2)nc1 [US20250289799, Example 155]
19.4	CC(C)Oc1cnc(-c2ccccc2C(C)C)nc1N(C)CC1CCN(c2nc(C(F)(F)F)cn2C)CC1 [US20250289799, Example 70]
24	COc1ncnc(C2CC2)c1-c1ncc(CO)c(NCc2ccc(-c3nc(C(F)(F)F)cn3C(C)C)cc2)n1 [US20250289799, Example 137]
19	COc1cnc(-c2cccc3c2N(C)CC3)nc1NCc1ccc(-c2nc(C(F)(F)F)cn2C)cc1 [US20250289799, Example 145]
35	COc1ncnc(C2CC2)c1-c1ncc2c(n1)N(Cc1ccc(-c3ccccn3)cc1)CCO2 [US20250289799, Example 9]
133	Cn1cc(C(F)F)nc1-c1ccc(CNc2nc(-c3cncnc3C3CC3)nc3ccoc23)cc1 [US20250289799, Example 197]
25	COc1cnc(-c2c(OC)ncnc2C2CC2)nc1N(Cc1ccc(-c2nc(C(F)(F)F)cn2C)cc1)OC [US20250289799, Example 142]
2.9	COc1cnc(-c2ccccc2C2CC2)nc1NCc1ccc(-n2nc(C(F)(F)F)cc2C)cc1 [US20250289799, Example 170]

IC50 [nM]	SMILES
0.45	CC(C)n1ncc(Cl)c1-c1nc(NCc2ccc(-c3nc(C(F)(F)F)cn3C)cc2)c2occc2n1 [US20250289799, Example 167]
8.4	COc1cnc(-c2c(OC)ncnc2C2CC2)nc1NCC1CCN(c2nc(C(F)(F)F)cn2C)CC1 [US20250289799, Example 95]
2.8	COc1cnc(-c2c(C)cnn2C(C)C)nc1N(C)Cc1ccc(-c2nc(C(F)(F)F)cn2C)cc1 [US20250289799, Example 200]
51	COc1ncnc(C2CC2)c1-c1nc(NCc2ccc(-c3ccccn3)cc2)c2[nH]ccc2n1 [US20250289799, Example 37]
9.5	COc1cnc(-c2c(OC)ncnc2C2CC2)nc1N(Cc1ccc(-c2nc(C(F)(F)F)cn2C)cc1)C1CC1 [US20250289799, Example 141]
1.4	COc1cnc(-c2c(Cl)cnn2C(C)C)nc1NCc1ccc(-n2nc(C(F)(F)F)cc2C)cc1 [US20250289799, Example 165]
6	COc1cnc(-c2c(Cl)cnn2C(C)C)nc1N(C)CC1CCN(c2ccccn2)CC1 [US20250289799, Example 161]
9	COCc1cnc(-c2c(OC)ncnc2C2CC2)nc1N(C)Cc1ccc(-c2nc(C(F)(F)F)cn2C(C)C)cc1 [US20250289799, Example 138]
22	COc1cnc(-c2ccccc2C(C)C)nc1NCc1ccc(-c2nccn3ccnc23)cc1 [US20250289799, Example 11]
164	COc1cnc(-c2c(OC)cnn2C2CC2)nc1NCc1ccc(-c2ccccn2)cc1 [US20250289799, Example 183]
23.5	COc1cnc(-c2c(C)noc2C(C)C)nc1NCC1CCN(c2nc(C(F)(F)F)cn2C)CC1 [US20250289799, Example 187]
77	COc1ncnc(C2CC2)c1-c1nc(NCc2ccc3c(c2)CCN(C(C)C)C3=O)c2occc2n1 [US20250289799, Example 115]
3.7	CC(C)c1ccccc1-c1ncc(C(F)(F)F)c(NCC2CCN(c3nc(C(F)(F)F)cn3C)CC2)n1 [US20250289799, Example 75]
3.6	CC(C)Oc1cnc(-c2ccccc2C(C)C)nc1NCc1ccc(-c2nc(C(F)(F)F)cn2C)cc1 [US20250289799, Example 73]
19.7	COc1ncnc(C2CC2)c1-c1ncc(OC(C)C)c(N(C)CC2CCN(c3nc(C(F)(F)F)cn3C)CC2)n1 [US20250289799, Example 108]
19	COc1cnc(-c2c(OC)ncnc2C2CC2)nc1N(C)CC12CCC(c3nc(C(F)(F)F)cn3C)(CC1)OC2 [US20250289799, Example 212]
7.5	COc1cnc(-c2cccnc2C2CC2)nc1NCC1CCN(c2nc(C(F)(F)F)cn2C)CC1 [US20250289799, Example 152]
2.1	COc1cnc(-c2ccccc2C(C)C)nc1NCC1CCN(c2nc(C(F)(F)F)cn2C)CC1 [US20250289799, Example 65]
1.7	COc1cc(CNc2nc(-c3ccccc3C(C)C)nc3ccoc23)ccc1-c1nc(C(F)(F)F)cn1C [US20250289799, Example 82]
2.3	COc1cc(-c2nc(C(F)(F)F)cn2C)ccc1CNc1nc(-c2ccccc2C2CC2)ncc1OC [US20250289799, Example 171]
2.1	COc1cnc(-c2cccnc2C(C)C)nc1NCc1ccc(-n2nc(C(F)(F)F)cc2C)cc1 [US20250289799, Example 158]
13	COc1cc(CNc2nc(-c3c(OC)ncnc3C3CC3)nc3ccoc23)ccc1-n1nc(C(F)(F)F)cc1C [US20250289799, Example 122]

IC50 [nM]	SMILES
3.5	COc1cnc(-c2c(OC)ncnc2C2CC2)nc1N(C)CC12C3C4C1C1C2C3C41c1nc(C(F)(F)F)cn1C (centres undefined) [US20250289799, Example 207]
1.6	COc1cnc(-c2c(Cl)cnn2C(C)C)nc1NCC12CCC(c3nc(C(F)(F)F)cn3C)(CC1)OC2 [US20250289799, Example 209]
33	Cc1noc(C(C)C)c1-c1ncc(OC(F)F)c(NCc2ccc(-c3nc(C(F)(F)F)cn3C)cc2)n1 [US20250289799, Example 190]
4.1	COc1cc(-c2nc(C(F)(F)F)cn2C)ccc1CNc1nc(-c2c(OC)ncnc2C2CC2)ncc1OC [US20250289799, Example 100]
3.2	COc1ncnc(C2CC2)c1-c1ncc(OC(F)F)c(NCc2ccc(-n3nc(C(F)(F)F)cc3C)cc2)n1 [US20250289799, Example 135]
5.3	COc1ncnc(C2CC2)c1-c1ncc(OC(C)C)c(N(C)Cc2ccc(-c3nc(C(F)(F)F)cn3C)cc2)n1 [US20250289799, Example 109]
27	COc1cnn(C(C)C)c1-c1nc(NCc2ccc(-c3ccccn3)cc2)c2occc2n1 [US20250289799, Example 181]
1.2	COc1cnc(-c2ccccc2C(C)C)nc1NCc1ccc(-c2nc(C(F)(F)F)cn2C)cc1 [US20250289799, Example 4]
0.8	COc1cnc(-c2ccccc2C2CC2)nc1NCc1ccc(-c2nc(C(F)(F)F)cn2C)cc1 [US20250289799, Example 169]
23	COc1ncnc(C2CC2)c1-c1nc(NCc2ccc(-c3nc(C(F)(F)F)cn3C)s2)c2occc2n1 [US20250289799, Example 113]
73	COc1cnc(-c2c(OC)ncnc2C2CC2)nc1N(Cc1ccc(-c2nc(C(F)(F)F)cn2C)cc1)C1CCOC1 (centres undefined) [US20250289799, Example 140]
5.2	COc1ncnc(C2CC2)c1-c1nc(NCc2ccc(-n3nc(C(F)(F)F)cc3C)cc2)c2occc2n1 [US20250289799, Example 50]
364	COc1cnc(-c2c(C)ncn2C(C)C)nc1NCc1ccc(-c2nc(C(F)(F)F)cn2C)cc1 [US20250289799, Example 147]
7.6	COc1cnc(-c2ccccc2C(C)C)nc1NCC1CCN(c2ccccn2)CC1 [US20250289799, Example 5]
7.4	COc1ncnc(C2CC2)c1-c1ncc(C#N)c(NCc2ccc(-c3nc(C(F)(F)F)cn3C)cc2)n1 [US20250289799, Example 131]
16	COc1cnc(-c2c(OC)ncnc2C2CC2)nc1NCc1ccc(-c2nc(C(F)(F)F)cn2CF)cc1 [US20250289799, Example 107]
3.9	COc1cnc(-c2c(Cl)cnn2C(C)C)nc1NCc1ccc(-c2ccccn2)cc1 [US20250289799, Example 162]
72	COc1cnc(-c2cccnc2C2CC2)nc1N(C)CC1CCN(c2ccccn2)CC1 [US20250289799, Example 151]
431	Cc1ncn(C(C)C)c1-c1nc(NCC23CCC(c4ccc(C(F)(F)F)cn4)(CC2)CC3)c2occc2n1 [US20250289799, Example 150]
4.4	COc1cc(-n2nc(C(F)(F)F)cc2C)ccc1CNc1nc(-c2ccccc2C(C)C)nc2ccoc12 [US20250289799, Example 83]
